Reference: ChEMBL document CHEMBL1139636, “QSAR analysis of thiazole benzenesulfonamide substituted 3-pyridylethanolamines as beta3-adrenergic receptor agonist” (Bioorg Med Chem Lett, 2005)
pEC50: −log10 of the molar value.

Molecular target: Beta-3 adrenergic receptor (Homo sapiens, UniProt P13945)
Assay: Effective concentration to stimulate cAMP production in chinese hamster ovary cells expressing cloned human beta-3-adrenergic receptor
Format: functional, cell-based, Cricetulus griseus

Sequence of Beta-3 adrenergic receptor (P13945 whole entry): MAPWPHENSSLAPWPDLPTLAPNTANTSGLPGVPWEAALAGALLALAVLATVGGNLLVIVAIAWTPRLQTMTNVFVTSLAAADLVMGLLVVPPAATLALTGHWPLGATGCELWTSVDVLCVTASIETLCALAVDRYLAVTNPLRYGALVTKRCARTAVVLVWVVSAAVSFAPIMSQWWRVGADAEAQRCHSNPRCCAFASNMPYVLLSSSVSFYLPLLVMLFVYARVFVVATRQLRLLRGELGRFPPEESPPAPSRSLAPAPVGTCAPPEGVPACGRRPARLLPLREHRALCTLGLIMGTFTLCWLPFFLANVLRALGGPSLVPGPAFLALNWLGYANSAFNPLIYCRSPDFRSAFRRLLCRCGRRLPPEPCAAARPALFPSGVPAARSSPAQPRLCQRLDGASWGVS

Row | pEC50 | Compound
1 | 7.35 | CC(=O)Nc1ccc(-c2csc(Cc3ccc(S(=O)(=O)Nc4ccc(CCNC[C@H](O)c5ccccc5)cc4)cc3)n2)cc1
2 | 8.00 | CCCCCCCCc1csc(Cc2ccc(S(=O)(=O)Nc3ccc(CCNC[C@H](O)c4ccccc4)cc3)cc2)n1
3 | 7.35 | O=S(=O)(Nc1ccc(CCNC[C@H](O)c2ccccc2)cc1)c1ccc(Cc2nc(-c3ccc(O)cc3)cs2)cc1
4 | 7.30 | CC(=O)NCCCCCc1csc(Cc2ccc(S(=O)(=O)Nc3ccc(CCNC[C@H](O)c4ccccc4)cc3)cc2)n1
5 | 8.21 | O=S(=O)(Nc1ccc(CCNC[C@H](O)c2ccccc2)cc1)c1ccc(Cc2nc(Cc3ccc(F)cc3)cs2)cc1
6 | 7.48 | O=S(=O)(Nc1ccc(CCNC[C@H](O)c2ccccc2)cc1)c1ccc(Cc2nc(CCc3ccccc3)cs2)cc1
7 | 8.01 | CCCCCCCCc1csc(CCc2ccc(S(=O)(=O)Nc3ccc(CCNC[C@H](O)c4ccccc4)cc3)cc2)n1
8 | 7.29 | CC/C=C/CC/C=C/c1csc(Cc2ccc(S(=O)(=O)Nc3ccc(CCNC[C@H](O)c4ccccc4)cc3)cc2)n1
9 | 7.59 | O=S(=O)(Nc1ccc(CCNC[C@H](O)c2ccccc2)cc1)c1ccc(Cc2nc(CCC3CCCC3)cs2)cc1
10 | 8.92 | CCCCCCc1ccc(-c2csc(Cc3ccc(S(=O)(=O)Nc4ccc(CCNC[C@H](O)c5ccccc5)cc4)cc3)n2)cc1
11 | 7.40 | O=S(=O)(Nc1ccc(CCNC[C@H](O)c2ccccc2)cc1)c1ccc(Cc2nc(-c3cccnc3)cs2)cc1

The next lines start with the compound.

Row | Compound | pEC50
12 | O=S(=O)(Nc1ccc(CCNC[C@H](O)c2ccccc2)cc1)c1ccc(Cc2nc(-c3cc4ccccc4o3)cs2)cc1 | 8.30
13 | O=S(=O)(Nc1ccc(CCNC[C@H](O)c2ccccc2)cc1)c1ccc(Cc2nc(-c3c[nH]c4ccccc34)cs2)cc1 | 8.04
14 | O=S(=O)(Nc1ccc(CCNC[C@H](O)c2ccccc2)cc1)c1ccc(Cc2nc(-c3cnc4ccccc4c3)cs2)cc1 | 8.14
15 | O=S(=O)(Nc1ccc(CCNC[C@H](O)c2ccccc2)cc1)c1ccc(Cc2nc(-c3ccc4ncccc4c3)cs2)cc1 | 8.57
16 | O=S(=O)(Nc1ccc(CCNC[C@H](O)c2ccccc2)cc1)c1ccc(Cc2nc(-c3ccc4ccccc4c3)cs2)cc1 | 8.70
17 | O=S(=O)(Nc1ccc(CCNC[C@H](O)c2ccccc2)cc1)c1ccc(Cc2nc(-c3ccc(F)c(F)c3)cs2)cc1 | 8.15
18 | O=S(=O)(Nc1ccc(CCNC[C@H](O)c2ccccc2)cc1)c1ccc(CCc2nc(Cc3ccc4ccccc4c3)cs2)cc1 | 7.92
19 | O=S(=O)(Nc1ccc(CCNC[C@H](O)c2ccccc2)cc1)c1ccc(Cc2nc(Cc3ccc4ccccc4c3)cs2)cc1 | 7.48
20 | CC(C)(C)c1ccc(-c2csc(Cc3ccc(S(=O)(=O)Nc4ccc(CCNC[C@H](O)c5ccccc5)cc4)cc3)n2)cc1 | 8.62
21 | O=S(=O)(Nc1ccc(CCNC[C@H](O)c2ccccc2)cc1)c1ccc(Cc2nc(-c3cc4ccccc4s3)cs2)cc1 | 8.24
22 | O=S(=O)(Nc1ccc(CCNC[C@H](O)c2ccccc2)cc1)c1ccc(Cc2nc(-c3ccc(F)cc3)cs2)cc1 | 8.02
23 | O=S(=O)(Nc1ccc(CCNC[C@H](O)c2ccccc2)cc1)c1ccc(Cc2nc(-c3ccccn3)cs2)cc1 | 7.66
